Experimental findings from patent publication US12404304B1, “Telomerase reverse transcriptase (TERT) expression enhancing compounds and methods for using the same” (Sierra Sciences, LLC, priority 2007, dated 2025) are described below.

Data set [1] concerns human TERT expression (hTERT mRNA). Nature of the data set: Quantitative real-time RT-PCR of hTERT mRNA expression (Ct, transcripts) in compound-treated cells. Format: cell-based. To be noted: quantitative real-time RT-PCR. The text has this:
Telomerase is a ribonucleoprotein complex composed of the catalytic protein subunit (human telomerase reverse transcriptase or hTERT) and the RNA template. hTERT expression level can be measured by PCR.
Briefly, amplification of the target sequence is monitored per PCR cycle by detecting the fluorescence signal emitted by an internal probe that is degraded by the 5′ nuclease activity of the Taq polymerase. The emission signal accumulates in each sample, and the Ct required to reach a given fluorescence threshold is determined (Ct stands for Cycle Threshold and is a measure of the number of PCR cycles that are required to amplify a target—thus, a lower Ct score means that there is more abundant hTERT mRNA). Thus, the Ct value of a sample inversely correlates to the quantity of the starting cDNA which correlates to the number of mRNA transcripts. Using the cDNA of known quantity, a standard curve can be generated and used to determine the starting amount of mRNA transcripts based on the […] of each sample.
Quantitative real-time PCR can be done on cDNA from test compound-treated and nontreated cells by use of a ABI Prism 7900 Sequence Detection System (PE Applied Biosystems, Foster City, CA) following the Assays-on-Demand protocol (PE Applied Biosystems, Foster City, CA). Quantitative data can be analyzed using the Sequence Detection System software version 2.1 (PE Applied Biosystems).
The following compounds were tested in assays designed to identify compounds that enhance human TERT expression.
(In general: Real-time PCR tracks product formation cycle by cycle.)

Another data set relates to viable cells in culture. Nature of the data set: Cell viability assay (CellTiter-Glo Luminescent Cell Viability Assay, ATP quantitation, percent of vehicle control). Background: ATP-based viability assays read luminescence as a measure of living cells.

Molecules are shown by their SMILES.

Take `Cc1ccnc(NC(c2ccc([N+](=O)[O-])cc2)c2ccc3ccc(C)nc3c2O)c1` (stereo not shown) [compound 1081]: the “Average Number of hTERT Transcripts” value in data set [1] came to 18.87. In addition, the “Average Cell Viability after 24 Hours (% DMSO)” value in the data set on viable cells in culture stood at 70.69 % DMSO.
Consider `Cc1ccnc(NC(c2cccc([N+](=O)[O-])c2)c2ccc3ccc(C)nc3c2O)c1` (stereo not shown) [compound 1084], for which, in data set [1], the “Average Number of hTERT Transcripts” value is 11.54. The “Average Cell Viability after 24 Hours (% DMSO)” value in the data set on viable cells in culture is 65.08 % DMSO.
Take `Oc1c(CN2CCN(Cc3ccc4cccnc4c3O)CC2)ccc2cccnc12` [compound 1085]: in data set [1], the “Average Number of hTERT Transcripts” value is 59.41. The “Average Cell Viability after 24 Hours (% DMSO)” value in the data set with viable cells in culture was 61.83 % DMSO.
Consider `CC(C)C(=O)NC(c1cccs1)c1cc(Cl)c2cccnc2c1O` (stereo not shown) [compound 1090], for which the “Average Number of hTERT Transcripts” value in data set [1] is 29.08. For the same compound, the “Average Cell Viability after 24 Hours (% DMSO)” value in the data set with viable cells in culture is 27.89 % DMSO.
Consider `Oc1c(C(Nc2ccccn2)c2ccccc2Cl)ccc2cccnc12` (stereo not shown) [compound 1094], for which the “Average Number of hTERT Transcripts” value in data set [1] is 32.08. Besides, the “Average Cell Viability after 24 Hours (% DMSO)” value with viable cells in culture came out at 56.64 % DMSO.
The matching figures for `COc1ccc(-c2cc(O)n(-c3ccc([N+](=O)[O-])cc3)n2)cc1` [compound 1106]: 68.17 and 79.49 % DMSO.
Take `COc1ccc(C2=NN(c3nc4ccccc4s3)C(=O)C2)cc1` [compound 1107]: the “Average Number of hTERT Transcripts” value in data set [1] amounted to 67.06. Moreover, the “Average Cell Viability after 24 Hours (% DMSO)” value in the data set with viable cells in culture amounted to 98.68 % DMSO.
The matching figures for `Oc1cc(-c2ccccc2)nn1-c1nc2ccccc2[nH]1` [compound 1108]: 79.20 and 94.50 % DMSO.
On to `CC1=NN(c2nc3ccccc3s2)C(=O)C1CCC(C)C` (stereo not shown) [compound 1109], for which the “Average Number of hTERT Transcripts” value in data set [1] came out at 35.79. The “Average Cell Viability after 24 Hours (% DMSO)” value in the data set with viable cells in culture stood at 67.53 % DMSO.
For the compound `Oc1cc(-c2ccc(F)cc2)nn1-c1nc2ccccc2[nH]1` [compound 1110], the “Average Number of hTERT Transcripts” value in data set [1] is on record as 86.68. The “Average Cell Viability after 24 Hours (% DMSO)” value in the data set on viable cells in culture worked out at 100.67 % DMSO.
The corresponding values for `CCCCc1c(C)nn(-c2nc3ccccc3[nH]2)c1O` [compound 1111] are 18.99 and 47.04 % DMSO.
With `Oc1c2c(nn1-c1nc3ccccc3[nH]1)CCCC2` [compound 1112], the “Average Number of hTERT Transcripts” value in data set [1] is 112.20. Besides, the “Average Cell Viability after 24 Hours (% DMSO)” value in the data set on viable cells in culture is 77.30 % DMSO.
The corresponding values for `Oc1c2c(nn1-c1nc3ccccc3s1)CCCC2` [compound 1113] are 66.98 and 89.80 % DMSO.
Regarding `CCc1c(C)nn(-c2nc3ccccc3s2)c1O` [compound 1114], in data set [1], the “Average Number of hTERT Transcripts” value turned out to be 148.58. For the same compound, in the data set with viable cells in culture, the “Average Cell Viability after 24 Hours (% DMSO)” value is listed as 89.40 % DMSO.
The corresponding values for `CC1=NN(c2ccccc2)C(=O)C1C(=O)c1ccc(Br)cc1` (stereo not shown) [compound 1115] are 59.18 and 81.68 % DMSO.
In the case of `Oc1cc(CSc2ccc(Cl)cc2)nn1-c1ccccc1` [compound 1116], the “Average Number of hTERT Transcripts” value in data set [1] amounted to 102.70. Besides, the “Average Cell Viability after 24 Hours (% DMSO)” value in the data set on viable cells in culture worked out at 75.26 % DMSO.
In the case of `Cc1c2c(=O)n(-c3nc4ccccc4s3)nc-2cc(O)n1Cc1ccccc1` [compound 1117], the “Average Number of hTERT Transcripts” value in data set [1] is 57.88. Further, in the data set on viable cells in culture, the “Average Cell Viability after 24 Hours (% DMSO)” value is listed as 84.16 % DMSO.
For `Cc1nnc(SCC2=NN(c3nc4ccccc4[nH]3)C(=O)C2)s1` [compound 1118], the “Average Number of hTERT Transcripts” value in data set [1] was 54.45. In the data set on viable cells in culture, the “Average Cell Viability after 24 Hours (% DMSO)” value is on record as 73.41 % DMSO.
The corresponding values for `O=C1CC(CSc2nnnn2-c2ccccc2)=NN1c1nc2ccccc2[nH]1` [compound 1119] are 125.15 and 62.38 % DMSO.
`Cc1ccc(-c2cc(O)n(-c3nc4ccccc4[nH]3)n2)cc1` [compound 1120]: in data set [1], the “Average Number of hTERT Transcripts” value turned out to be 118.82. Further, the “Average Cell Viability after 24 Hours (% DMSO)” value in the data set on viable cells in culture worked out at 52.50 % DMSO.
`Oc1cc(-c2ccc(Cl)cc2)nn1-c1nc2ccccc2[nH]1` [compound 1121]: the “Average Number of hTERT Transcripts” value in data set [1] amounted to 119.73. Besides, the “Average Cell Viability after 24 Hours (% DMSO)” value in the data set with viable cells in culture is 52.77 % DMSO.
On to `CCCC1=NN(c2ccc(Cl)cc2)C(=O)C1` [compound 1122], for which the “Average Number of hTERT Transcripts” value in data set [1] stood at 13.40. For the same compound, in the data set with viable cells in culture, the “Average Cell Viability after 24 Hours (% DMSO)” value was 66.57 % DMSO.
With `Cc1csc(-n2nc(C)c(CC(=O)Nc3ccc(Br)cc3)c2O)n1` [compound 1123], the “Average Number of hTERT Transcripts” value in data set [1] turned out to be 58.23. Further, in the data set on viable cells in culture, the “Average Cell Viability after 24 Hours (% DMSO)” value was found to be 79.37 % DMSO.
The corresponding values for `CCCCNC(=O)Cc1c(C)nn(-c2nc(C)c(C)s2)c1O` [compound 1124] are 34.96 and 87.04 % DMSO.
On to `Cc1nc(-n2nc(C)c(CC(=O)N3CCN(c4ccc(F)cc4)CC3)c2O)sc1C` [compound 1125], for which, in data set [1], the “Average Number of hTERT Transcripts” value is given as 82.95. Besides, the “Average Cell Viability after 24 Hours (% DMSO)” value with viable cells in culture is recorded as 78.39 % DMSO.
The corresponding values for `Cc1nc(-n2nc(C)c(CC(=O)N3CCCCC3)c2O)sc1C` [compound 1126] are 75.66 and 95.13 % DMSO.
Turning to `CCOC(=O)N1CCN(C(=O)Cc2c(C)nn(-c3nc(C)c(C)s3)c2O)CC1` [compound 1127], the “Average Number of hTERT Transcripts” value in data set [1] was 20.86. Moreover, the “Average Cell Viability after 24 Hours (% DMSO)” value in the data set with viable cells in culture worked out at 92.15 % DMSO.
Consider `Cc1nc(-n2nc(C)c(CC(=O)Nc3ccc(F)cc3)c2O)sc1C` [compound 1128], for which the “Average Number of hTERT Transcripts” value in data set [1] is 42.25. In the data set on viable cells in culture, the “Average Cell Viability after 24 Hours (% DMSO)” value is 86.93 % DMSO.
`CCCCc1c(C)nn(-c2nc(C)c(C(=O)OCC)s2)c1O` [compound 1129]: the “Average Number of hTERT Transcripts” value in data set [1] came out at 54.36. In addition, in the data set with viable cells in culture, the “Average Cell Viability after 24 Hours (% DMSO)” value was 68.77 % DMSO.
The corresponding values for `CCOC(=O)c1sc(-n2nc(C)c(Cc3ccc(C)cc3)c2O)nc1C` [compound 1130] are 31.93 and 70.45 % DMSO.
`CCOC(=O)c1sc(-n2nc(C)c(Cc3ccc(Cl)cc3)c2O)nc1C` [compound 1131]: the “Average Number of hTERT Transcripts” value in data set [1] is reported as 95.19. Besides, the “Average Cell Viability after 24 Hours (% DMSO)” value with viable cells in culture is given as 75.57 % DMSO.
Take `Cc1csc(-n2nc(C)c(CCC(=O)Nc3ccc(F)cc3)c2O)n1` [compound 1132]: in data set [1], the “Average Number of hTERT Transcripts” value came out at 81.62. For the same compound, the “Average Cell Viability after 24 Hours (% DMSO)” value in the data set on viable cells in culture worked out at 91.26 % DMSO.
`Cc1csc(-n2nc(C)c(CCC(=O)Nc3ccc(Br)cc3)c2O)n1` [compound 1133]: in data set [1], the “Average Number of hTERT Transcripts” value came out at 108.84. Further, the “Average Cell Viability after 24 Hours (% DMSO)” value with viable cells in culture is reported as 77.29 % DMSO.
The matching figures for `Cc1csc(-n2nc(C)c(CCC(=O)Nc3ccc(Cl)cc3)c2O)n1` [compound 1134]: 127.97 and 87.25 % DMSO.
The corresponding values for `CCCCNC(=O)CCc1c(C)nn(-c2nc(C)c(C)s2)c1O` [compound 1135] are 23.88 and 88.69 % DMSO.
With `Cc1nc(-n2nc(C)c(CCC(=O)N3CCN(c4ccc(F)cc4)CC3)c2O)sc1C` [compound 1136], the “Average Number of hTERT Transcripts” value in data set [1] came to 135.61. Moreover, in the data set with viable cells in culture, the “Average Cell Viability after 24 Hours (% DMSO)” value is listed as 90.51 % DMSO.
For `Cc1nc(-n2nc(C)c(CCC(=O)N3CCCCC3)c2O)sc1C` [compound 1137], the “Average Number of hTERT Transcripts” value in data set [1] was determined as 81.62. Besides, the “Average Cell Viability after 24 Hours (% DMSO)” value in the data set with viable cells in culture stood at 81.10 % DMSO.
The corresponding values for `Cc1nc(-n2nc(C)c(CCC(=O)Nc3ccc(F)cc3)c2O)sc1C` [compound 1138] are 162.66 and 87.23 % DMSO.
As for `Cc1nc(-n2nc(C)c(CCC(=O)Nc3ccc(Br)cc3)c2O)sc1C` [compound 1139], in data set [1], the “Average Number of hTERT Transcripts” value turned out to be 19.61. In addition, in the data set on viable cells in culture, the “Average Cell Viability after 24 Hours (% DMSO)” value stood at 74.45 % DMSO.
Consider `Cc1nnc(SCc2cc(O)n(-c3nc4ccccc4s3)n2)s1` [compound 1141], for which the “Average Number of hTERT Transcripts” value in data set [1] was 19.39. The “Average Cell Viability after 24 Hours (% DMSO)” value in the data set with viable cells in culture came out at 71.38 % DMSO.
In the case of `Cc1ccc(Cc2c(C)nn(-c3nc4ccccc4[nH]3)c2O)cc1` [compound 1143], the “Average Number of hTERT Transcripts” value in data set [1] came out at 22.65. Also, the “Average Cell Viability after 24 Hours (% DMSO)” value in the data set on viable cells in culture is given as 35.07 % DMSO.
For `Cc1nn(-c2nc3ccccc3[nH]2)c(O)c1Cc1ccccc1Cl` [compound 1144], the “Average Number of hTERT Transcripts” value in data set [1] is listed as 54.47. The “Average Cell Viability after 24 Hours (% DMSO)” value in the data set on viable cells in culture is given as 40.68 % DMSO.
Turning to `Cc1nn2c(=O)c(Cc3ccccc3)c(C)[nH]c2c1-c1ccc(Cl)cc1` [compound 1145], the “Average Number of hTERT Transcripts” value in data set [1] was 76.07. The “Average Cell Viability after 24 Hours (% DMSO)” value in the data set on viable cells in culture is 63.03 % DMSO.
As for `Cc1[nH]c2c(-c3ccc(Cl)cc3)cnn2c(=O)c1Cc1ccccc1` [compound 1146], the “Average Number of hTERT Transcripts” value in data set [1] was 57.84. Further, the “Average Cell Viability after 24 Hours (% DMSO)” value in the data set with viable cells in culture is recorded as 63.23 % DMSO.
